In PMC5903241 (British Journal of Clinical Pharmacology, 2018):
Values joined by “and” are separate entries in the source; they are usually repeats but may differ in a detail not shown here. Equal values may be shown once. Read-outs that look alike come from different tables or passages of the source.

Key:
Safety assessments = format: in vivo, healthy subjects; details: for Pulse rate / Supine diastolic blood pressure / Supine systolic blood pressure: mean ± SD; for eGFR: mean ± standard deviation, baseline 107.8 ± 10.9
[1] = format: in vivo, healthy subjects; details: mean (SD)
[2] = furosemide 40 mg alone, geometric least squares mean
[3] = format: in vivo, healthy subjects; details: for Tmax / AUC / Cmax: human, plasma, oral; for AUC: AUCtau, steady state; for AUC / Cmax: mean (SD); for Cmax: Cmax,ss; for Estimated geometric mean ratio of AUCtau / Estimated geometric mean ratio of Cmax,ss: sacubitril/valsartan + furosemide vs sacubitril/valsartan alone
[4] = urine, 4 to 8 h after furosemide
[5] = 200 mg, sacubitril/valsartan 200 mg twice daily alone
[6] = sacubitril/valsartan 200 mg twice daily + furosemide 40 mg single dose

Molecule | Tmax ([3]; 200 mg) | AUC [3, 5] | Cmax [3, 5] | AUC [3, 6] | Cmax [3, 6] | Estimated geometric mean ratio of AUCtau [3] | Estimated geometric mean ratio of Cmax,ss [3] | Pulse rate (Safety assessments) | Supine diastolic blood pressure (Safety assessments) | Supine systolic blood pressure (Safety assessments) | eGFR (Safety assessments) | other results
NS(=O)(=O)c1cc(C(=O)O)c(NCc2ccco2)cc1Cl [Furosemide, furosemide] | – | – | – | – | – | – | – | 71.0 ± 9.7 bpm | 71.6 ± 6.1 mmHg | 115.5 ± 12.2 mmHg | 103.1 ± 12.5 ml min^–1 1.73 m^–2 | subjects reporting AE back pain (Safety assessments; one subject of 28): 3.6%; subjects reporting AEs (Safety assessments; when treated with furosemide, 28 subjects): Two subjects reported AEs; Urine volume, Volume0–4 ([1]; 0 to 4 h after furosemide): 1640.00 (413.49) ml; Urine volume, Volume0–24 ([1]; 0 to 24 h after furosemide): 3816.07 (533.04) ml; Urine volume, Volume4–8 ([1]; 4 to 8 h after furosemide): 585.36 (204.30) ml; Potassium Ae0–4 ([1]; urine, 0 to 4 h after furosemide): 22.87 (5.60) mmol; Sodium Ae0–4 ([1]; urine, 0 to 4 h after furosemide, listed as Furosemide alone): 128.87 mmol and 128.87 (42.36) mmol; Potassium Ae0–24 ([1]; urine, 0 to 24 h after furosemide): 60.35 (8.08) mmol; Sodium Ae0–24 ([1]; urine, 0 to 24 h after furosemide, listed as Furosemide alone): 198.68 mmol and 198.68 (34.95) mmol; Potassium Ae4–8 [1, 4]: 10.04 (3.74) mmol; Sodium Ae4–8 [1, 4]: 21.57 (12.89) mmol; Ae0–4, amount excreted in urine ([2]; 0 to 4 h): 8.03 mg; Ae0–24, amount excreted in urine ([2]; 0 to 24 h): 12.54 mg
CCOC(=O)[C@H](C)C[C@@H](Cc1ccc(-c2ccccc2)cc1)NC(=O)CCC(=O)O [Sacubitril, sacubitril] | 0.52 h | 2330 ng·h/mL | 1740 ng/mL | 2330 ng·h/mL | 1810 ng/mL | 1.01 | 1.04 | – | – | – | – | –
sacubitril/valsartan | – | – | – | – | – | – | – | 71.6 ± 9.9 bpm | 67.5 ± 7.9 mmHg | 111.1 ± 10.7 mmHg | 107.7 ± 12.5 ml min^–1 1.73 m^–2 | subjects reporting AEs diarrhoea, headache and presyncope (each) (Safety assessments; each reported by one subject of 28, sacubitril/valsartan alone): 3.6%

Continued, in another order:

Tmax ([3]; 200 mg) | AUC [3, 5] | Cmax [3, 5] | AUC [3, 6] | Cmax [3, 6] | Estimated geometric mean ratio of AUCtau [3] | Estimated geometric mean ratio of Cmax,ss [3] | Molecule | Pulse rate (Safety assessments) | Supine diastolic blood pressure (Safety assessments) | Supine systolic blood pressure (Safety assessments) | eGFR (Safety assessments) | other results
2 h | 79600 ng·h/mL | 11800 ng/mL | 86100 ng·h/mL | 12700 ng/mL | 1.08 | 1.08 | C[C@H](C[C@@H](Cc1ccc(-c2ccccc2)cc1)NC(=O)CCC(=O)O)C(=O)O [Sacubitrilat, sacubitrilat] | – | – | – | – | –
1.75 h | 18900 ng·h/mL | 3860 ng/mL | 21000 ng·h/mL | 4250 ng/mL | 1.16 | 1.16 | CCCCC(=O)N(Cc1ccc(-c2ccccc2-c2nnn[nH]2)cc1)[C@H](C(=O)O)C(C)C [Valsartan, valsartan] | – | – | – | – | coefficient of variation of pharmacokinetic parameters ([3]; valsartan pharmacokinetic parameters): 35.8%; increase of AUCtau when coadministered with furosemide ([3]; vs sacubitril/valsartan alone): 16%; increase of Cmax,ss when coadministered with furosemide ([3]; vs sacubitril/valsartan alone): 16%
